This is an account of results in patent publication US9162010B2, “Drug eluting cochlear implants” (Tepha, Inc., priority 2010, dated 2015).

The subject of one data set is NIH-3T3 fibroblasts. As to the kind of experiment: Neutral Red assay of NIH-3T3 fibroblast viability. The conditions noted are these: for impact on viability of NIH-3T3 cells: concentrations between 10^-12 and 10^-6 mol/L; for effect on NIH-3T3 cell viability: drug at concentrations between 10^-12 and 10^-4 mol/L, relative to control (no drug), 48 hours. The format is cell-based. As to the method: Cell survival and viability of NIH-3T3 fibroblasts were measured using a Neutral Red Assay. NIH-3T3 fibroblasts were seeded into 96-well cell culture plates at a density of 10^4 cells/well in Dulbecco's Modified Eagle's Medium supplemented with 10% fetal calf serum. After 48 hours, cells were stained using a Neutral Red Assay. Neutral red is taken up only by living cells.
After incubation for 3 hours and several washing steps, cells were permeabilized and the neutral red solubilized in the supernatant. The absorption measured at 570 nm is proportional to the number of living cells. Measurements were run in quintuplicate and results were averaged. The experiment was repeated at least four times.
(§1) Discs (0.1 mm thick and 6 mm in diameter) of poly(L-lactide) (PLLA, Resomer L214, Boehringer Ingelheim Pharma GmbH & Co. KG, Ingelheim, Germany), poly(4-hydroxybutyrate) (P(4HB), Tepha, Inc., Lexington, Mass., USA) and silicone were placed at the bottom of standard 96-well tissue culture plates. Microtiter plates without material additions served as controls. Cells were seeded into each of the different cell culture wells and the assays were carried out as described above in Examples 1 and 2. For absorption measurements when using NIH-3T3 cells and neutral red test, the supernatant of all wells was transferred into new wells after permeabilization of the cells. Surviving spiral ganglion cells were stained directly on the polymer discs and counted.
The NIH-3T3 fibroblasts were cultured and assayed with Neutral Red according to Example 1, except that dexamethasone or sirolimus were added to the cell culture at concentrations between 10^−12 and 10^−4 mol/L. The percentage of viable NIH-3T3 cells was assayed relative to the control (no drug) and the results are shown in FIGS. 2 (dexamethasone) and 3 (sirolimus).

The next data set deals with spiral ganglion cells. In words: Spiral ganglion cell survival by anti-neurofilament antibody staining and microscopic counting. The format is cell-based, Sprague-Dawley rats. The conditions noted are these: for impact on viability of SGC: concentrations between 10^-12 and 10^-6 mol/L; for viability (survival) of spiral ganglion cells at high concentration: concentration of 10^-5 mol/L (FIG. 3). As to the method:
Spiral ganglion cells were freshly isolated from Sprague-Dawley rats (p3-5). Viable cells were suspended in Dulbecco's Modified Eagle's Medium supplemented with 10% fetal calf serum and 50 ng/ml BDNF and were seeded onto laminin- and ornithin-coated cell culture plates at a density of 1.5×10^4 cells/well. After a cultivation time of 48 hours, cells were stained with anti-neurofilament antibody and counted under a microscope. All experiments were performed in quadruplicate and the experiment was repeated four times.
as §1

On to `C[C@@H]1C[C@H]2[C@@H]3CCC4=CC(=O)C=C[C@]4(C)[C@@]3(F)[C@@H](O)C[C@]2(C)[C@@]1(O)C(=O)CO` [dexamethasone], for which, in the data set on NIH-3T3 fibroblasts, the “impact on viability of NIH-3T3 cells” value is listed as “do not have an adverse impact” and the “effect on NIH-3T3 cell viability” value is reported as “no toxic effects”. In addition, the “increase of spiral ganglion cell viability” value in the data set on spiral ganglion cells (concentrations between 10^-11 to 10^-7 mol/L (FIG. 2)) is listed as approximately 20%. In addition, in the data set on spiral ganglion cells, the “impact on viability of SGC” value is “do not have an adverse impact”. Also, the “effect on spiral ganglion cell viability” value in the data set with spiral ganglion cells (drug at concentrations between 10^-12 and 10^-4 mol/L, relative to control (no drug), 48 hours) is given as “no toxic effects”.
`CO[C@H]1C[C@@H]2CC[C@@H](C)[C@@](O)(O2)C(=O)C(=O)N2CCCC[C@H]2C(=O)O[C@H]([C@H](C)C[C@@H]2CC[C@@H](O)[C@H](OC)C2)CC(=O)[C@H](C)/C=C(\C)[C@@H](O)[C@@H](OC)C(=O)[C@H](C)C[C@H](C)/C=C/C=C/C=C/1C` [sirolimus]: in the data set on NIH-3T3 fibroblasts, the “impact on viability of NIH-3T3 cells” value is “do not have an adverse impact” and the “effect on NIH-3T3 cell viability” value is given as “only a small decrease”. Moreover, in the data set with spiral ganglion cells, the “viability (survival) of spiral ganglion cells at high concentration” value is given as “reduced” and the “impact on viability of SGC” value is “do not have an adverse impact”. The “viability (survival) of spiral ganglion cells at high concentration” value in the data set with spiral ganglion cells (listed as Sirolimus) was “substantially reduced”.
